Here are results for two molecules from patent US20070014825A1, “Ant bait attractive to many species of ants and useful in their rapid control” (priority 2005, published 2007).

Experiment [1] concerns ants. The experiment is described as follows: Repulsion or loss of attractant activity of bait additives to ants. The format is in vivo. Particulars: trace amounts added to ant baits.
Experiment [2] deals with Carpenter Ant. Put plainly: Liquid carpenter ant bait placed on ant trail: distance traveled after ingestion and kill. The format is in vivo, Carpenter Ant (Genus Componatus). How it is done: The above liquid carpenter ant bait was not formulated with a fragrance or dye, although both these additives may can be added. Soak the liquid ant bait in an absorbent wick, cotton ball or tissue and place on ant trail.
A carpenter ant ingested bait 7a for approximately 20 minutes, walked approximately 1.5-2 feet and was killed. Another carpenter ant ingested bait 7b for approximately 20 minutes, walked 20-30 feet, disappearing in the brush.
The ant baits of the above examples were tested in their natural environment where the particular ants were found. The baits were distributed in small amounts in the areas where the ants were seen to be active. All of the baits were readily accepted by the various ants. Gradually in all of the examples the numbers of ants in the treated areas was reduced to the point that none could be found.

Consider `O=c1[nH]sc2ccccc12` [1,2-benzisothiazolin-3-one], for which the “Loss in attractant activity of ant bait” value in experiment [1] is on record as “Little or no loss in attractant activity”.

Consider `COP(=O)(NC(C)=O)SC` (stereo not drawn) [acephate], for which, in experiment [2] (Level of toxicant in Bait 0.2%), the “Time after Bait Ingestion at which ant disappeared (kill not observed)” value is “after 35-40 minutes” and the “Time of Ingestion of Bait by Ant” value is reported as “˜20 minutes”. In addition, the “Distance Traveled” value in experiment [2] (Level of toxicant in Bait 0.2%, ant disappeared) is reported as 20-30 feet. In experiment [2] (Level of toxicant in Bait 0.2%, entire nest killed), the “Nest Killed” value is recorded as “Yes”. Moreover, in experiment [2] (Level of toxicant in Bait 1.2%), the “Distance Traveled” value is listed as 1.5-2 feet, the “Nest Killed” value is “No”, the “Time Ant Killed after Bait Ingestion” value is “˜22-23 minutes” and the “Time of Ingestion of Bait by Ant” value was “˜20 minutes”.
